From patent US20240116985A1, “STAPLED PEPTIDES AND METHODS THEREOF” (priority 2020, published 2024)
Converted amounts (≈) assume the structure as drawn. Read-outs that look alike come from different tables or passages of the source.

Tests used:
Axin2 and Myc = experiment: Gene expression in cells (FIG. 1); format: cell-based
Description: FIG. 1. Provided agents can modulate gene expression in cells.

[1] = system: TCF/LEF luciferase Reporter in DLD1 cells; experiment: TCF reporter assay (DLD1 TCF/LEF luciferase reporter, Bright-Glo); format: cell-based
Outline: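 DLD1 cells stably carrying a TCF/LEF luciferase reporter were plated at 5000 cells/well in RPMI + 4% FBS and treated overnight with a 1:2 compound dilution series. Bright-Glo luminescence read on day 3; viability by CellTiter-Glo. Absolute IC50 determined.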

PLOD2 and LCOR = experiment: Expression of beta-catenin-independent genes (FIG. 2); format: cell-based
[2] = biological target: T1, beta-catenin/TCF4 engagement (Homo sapiens, UniProt P35222); experiment: Nano-BRET target engagement assay (B-cat-Halo & TCF4-Luc in HEK293 cells); format: cell-based
T1 construct: expressed in transfected cells; host or cells: HEK293
T1 sequence (P35222 1-781): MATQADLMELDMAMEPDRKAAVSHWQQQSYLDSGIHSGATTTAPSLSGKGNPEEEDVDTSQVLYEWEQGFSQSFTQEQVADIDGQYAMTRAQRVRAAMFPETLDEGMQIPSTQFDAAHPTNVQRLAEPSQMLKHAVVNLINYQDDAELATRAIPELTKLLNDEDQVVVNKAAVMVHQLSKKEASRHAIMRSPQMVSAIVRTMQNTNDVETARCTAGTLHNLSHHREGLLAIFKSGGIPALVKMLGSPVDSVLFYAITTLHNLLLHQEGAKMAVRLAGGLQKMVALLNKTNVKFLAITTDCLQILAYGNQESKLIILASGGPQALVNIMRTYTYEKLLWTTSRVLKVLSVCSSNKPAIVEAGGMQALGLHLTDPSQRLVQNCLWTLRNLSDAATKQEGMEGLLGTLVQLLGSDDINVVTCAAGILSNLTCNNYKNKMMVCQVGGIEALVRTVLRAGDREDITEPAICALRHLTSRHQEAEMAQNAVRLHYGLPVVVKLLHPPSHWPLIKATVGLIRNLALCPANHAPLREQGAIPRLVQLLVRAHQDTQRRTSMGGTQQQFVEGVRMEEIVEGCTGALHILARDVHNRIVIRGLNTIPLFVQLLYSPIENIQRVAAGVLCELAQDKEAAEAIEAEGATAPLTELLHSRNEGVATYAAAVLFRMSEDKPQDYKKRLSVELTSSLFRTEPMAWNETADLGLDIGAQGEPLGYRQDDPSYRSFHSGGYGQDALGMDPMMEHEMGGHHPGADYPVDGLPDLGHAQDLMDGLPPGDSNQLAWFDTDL

CHI Log D procedure = format: physicochemical; conditions: for CHI Log D: pH 7.4
[3] = biological target: T2, full-length beta-Catenin (Uniprot ID P35222) (Homo sapiens, UniProt P35222); experiment: Fluorescence polarization IC50 (beta-catenin / 5FAM-TCF4 10-53 competition); format: binding
T2 construct: 10 nM full-length beta-Catenin (Uniprot ID P35222)
T2 sequence (P35222 1-781): T1 sequence (P35222 1-781)

DLD1 = experiment: Reporter assay (e.g., DLD1 reporter assay) (FIG. 3); format: cell-based; conditions: compared to a control peptide I-796
Description: FIG. 3. Provided technologies can effectively modulate expression.
Various technologies can be utilized for characterizing and/or assessing provided technologies (e.g., agents (e.g., various peptides), compositions, methods, etc.) in accordance with the present disclosure. As described herein, in some embodiments, a useful technology is or comprises fluorescence polarization. In some embodiments, a useful technology assesses Log P or Log D. In some embodiments, a useful technology is or comprises a CHI Log D assay. In some embodiments, a useful technology assesses solubility. In some embodiments, a useful technology is or comprises NanoBRET. In some embodiments, a useful technology is or comprises a reporter assay (e.g., DLD1 reporter assay). In some embodiments, a useful technology is or comprises alphascreen. Certain useful protocols are described in the Examples. Those skilled in the art appreciate that suitable adjustments may be made to such protocols, e.g., according to specific conditions, agents, purposes, etc.

Solubility in PBS = format: physicochemical
Outline: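 HPLC quantitation of peptide remaining in the PBS supernatant after ultracentrifugation, referenced to a 50 μM solution in DMSO.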

COLO320DM cells = format: cell-based; conditions: read-out: COLO320DM Proliferation Abs IC50
Outline: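 COLO320DM cells at 250 cells/well in RPMI-1640 + 4% HI FBS, dosed after 18–22 h with a 7-point […] 1/2 dilution series from 20 uM down to 313 nM.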

[4] = Peptide + ST-Protein (SAINT-Protein lipid), read-out: TCF Reporter Assay Abs IC50
[5] = Peptide only, read-out: TCF Reporter Assay Abs IC50
[6] = read-out: DLD1 4% Abs IC50, DLD1 4%
[7] = Peptide + ST-Protein (SAINT-Protein lipid), read-out: Nano-BRET Abs IC50
[8] = Peptide only, read-out: Nano-BRET Abs IC50
[9] = absolute IC50, read-out: NanoBRET Abs IC50
[10] = fluorescence polarization, beta-catenin, read-out: FP EC50

| IC50 [1, 4] [µM] | IC50 [1, 5] [µM] | IC50 [2, 7] [µM] | IC50 [2, 8] [µM] | IC50 [2, 9] [µM] | IC50 ([2]; read-out: NanoBRET Abs IC50) [µM] | IC50 ([2]; read-out: NanoBRET IC50) [µM] | CHI Log D (CHI Log D procedure) | IC50 [3, 10] [µM] | IC50 ([3]; read-out: beta-Catenin FP IC50) [µM] | Solubility (Solubility in PBS) [µM] | SMILES | expression of various nucleic acids such as Axin2 and Myc (Axin2 and Myc) | IC50 [1, 6] [µM] | expression of beta-catenin-independent genes including beta-catenin-independent WNT target genes such as PLOD2 and LCOR (PLOD2 and LCOR) | expression in a report assay (DLD1) | IC50 ([1]; absolute IC50, read-out: DLD1 reporter assay Abs IC50) [µM] | IC50 (COLO320DM cells) [µM] | Solubility (Solubility in PBS; Solubility (uM)) [µM] | chromatographic logD (CHI Log D procedure; pH 7.4, CHI Log D) |
| --- | --- | --- | --- | --- | --- | --- | --- | --- | --- | --- | --- | --- | --- | --- | --- | --- | --- | --- | --- |
| 0.2 | 5 | 0.7 | 5 | 2.6 | 3.6 | 2.3 | 2.393 | 0.007 | 0.008 |  | CC(=O)N1CCC[C@]12CC=CCCCC1(CCCC=CCCCOC(=O)N3CC[C@@](C(=O)N[C@@H](Cc4ccsc4)C(=O)N[C@@H](Cc4csc5ccccc45)C(=O)N[C@@H](CCC(N)=O)C(N)=O)(C3)NC(=O)[C@H](CC(C)C)NC(=O)[C@H](Cc3ccccc3)NC(=O)[C@H](C)NC(=O)[C@H](C)NC(=O)[C@H](CN(CC(=O)O)CC(F)(F)F)NC(=O)[C@H](CC(=O)O)NC1=O)NC(=O)[C@H](CC(C)(C)C)NC(=O)[C@H](CC(=O)O)NC2=O (stereo partly drawn) [I-849, Ac-PL3-Asp-Npg-B5-Asp-TfeGA-Ala-Ala-Phe-Leu-PyrS2-3Thi-BztA-Gln-NH2] | can effectively reduce expression | 1.1 | do not significantly impact expression | can effectively reduce expression |  |  |  |  |
| 0.2 | 5 | 1 | 6 | 2.7 | 2.7 | 2.3 | 2.344 | 0.012 | 0.012 | 32 (≈ 65.4 µg/mL) | CC(=O)N1CCC[C@]12CC=CCCCC1(CCCC=CCCCOC(=O)N3CC[C@@](C(=O)N[C@@H](Cc4ccccc4Cl)C(=O)N[C@@H](Cc4csc5ccccc45)C(=O)N[C@@H](CCC(N)=O)C(N)=O)(C3)NC(=O)[C@H]([C@@H](C)O)NC(=O)[C@H](Cc3ccccc3)NC(=O)[C@H](C)NC(=O)[C@H](C)NC(=O)[C@H](CN(CC(=O)O)CC(F)(F)F)NC(=O)[C@H](CC(=O)O)NC1=O)NC(=O)[C@H](CC(C)(C)C)NC(=O)[C@H](CC(=O)O)NC2=O (stereo partly drawn) [I-922, Ac-PL3-Asp-Npg-B5-Asp-TfeGA-Ala-Ala-Phe-Thr-PyrS2-2C1F-BztA-Gln-NH2] | can effectively reduce expression |  | do not significantly impact expression | can effectively reduce expression |  |  |  |  |

| SMILES | IC50 [1, 4] [µM] | IC50 [1, 5] [µM] | IC50 [2, 7] [µM] | IC50 [2, 8] [µM] | IC50 [2, 9] [µM] | IC50 ([2]; read-out: NanoBRET Abs IC50) [µM] | IC50 ([2]; read-out: NanoBRET IC50) [µM] | CHI Log D (CHI Log D procedure) | IC50 [3, 10] [µM] | IC50 ([3]; read-out: beta-Catenin FP IC50) [µM] | Solubility (Solubility in PBS) [µM] | expression of various nucleic acids such as Axin2 and Myc (Axin2 and Myc) | IC50 [1, 6] [µM] | expression of beta-catenin-independent genes including beta-catenin-independent WNT target genes such as PLOD2 and LCOR (PLOD2 and LCOR) | expression in a report assay (DLD1) | IC50 ([1]; absolute IC50, read-out: DLD1 reporter assay Abs IC50) [µM] | IC50 (COLO320DM cells) [µM] | Solubility (Solubility in PBS; Solubility (uM)) [µM] | chromatographic logD (CHI Log D procedure; pH 7.4, CHI Log D) |
| --- | --- | --- | --- | --- | --- | --- | --- | --- | --- | --- | --- | --- | --- | --- | --- | --- | --- | --- | --- |
| CC(=O)N1CCC[C@]12CC=CCCCC1(CCCC=CCCCOC(=O)N3CC[C@@](C(=O)N[C@@H](Cc4ccccc4Cl)C(=O)N[C@@H](Cc4csc5ccccc45)C(=O)N[C@@H](CCO)C(N)=O)(C3)NC(=O)[C@H](CCO)NC(=O)[C@H](Cc3ccccc3)NC(=O)[C@H](C)NC(=O)[C@H](C)NC(=O)[C@H](CN(CC(=O)O)CC(F)(F)F)NC(=O)[C@H](CC(=O)O)NC1=O)NC(=O)[C@H](CC(C)(C)C)NC(=O)[C@H](CC(=O)O)NC2=O (stereo partly drawn) [I-993, Ac-PL3-Asp-Npg-B5-Asp-TfeGA-Ala-Ala-Phe-Hse-PyrS2-2C1F-BztA-Hse-NH2] | 0.2 | 5 | 0.9 | 7 | 4 | 4.9 |  |  | 0.012 | 0.018 |  |  | 1.8 |  |  | 4.4 | 3.6 | 41 (≈ 82.7 µg/mL) | 2.33 |
